This test concerns the target T1, met (HGF receptor) in human gastric cancer cells MKN45 (Homo sapiens, UniProt P08581).
T1 construct: endogenous in cells; host or cells: MKN45 human gastric cancer cells
Nature of the test: Inhibitory activity against met-autophosphorylation using ELISA method (2), MKN45 cells, HGF-independent. Type of test: cell-based. The method in brief:
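Met autophosphorylation was read by sandwich ELISA: phosphotyrosine capture (PY20), anti-HGF receptor detection, peroxidase read-out at 450 nm. Lysates came from MKN45 gastric cancer cells kept in 0.1% FCS RPMI and treated 1 h at 37 °C with test compound, with no added HGF.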
(In an ELISA, binding on a coated surface is turned into a signal by an enzyme label.)

The structures appear in SMILES notation.

The term IC50 denotes the point on the concentration scale where inhibition reaches its midpoint. Lower therefore signals higher potency.

T1 sequence (P08581 25-1390): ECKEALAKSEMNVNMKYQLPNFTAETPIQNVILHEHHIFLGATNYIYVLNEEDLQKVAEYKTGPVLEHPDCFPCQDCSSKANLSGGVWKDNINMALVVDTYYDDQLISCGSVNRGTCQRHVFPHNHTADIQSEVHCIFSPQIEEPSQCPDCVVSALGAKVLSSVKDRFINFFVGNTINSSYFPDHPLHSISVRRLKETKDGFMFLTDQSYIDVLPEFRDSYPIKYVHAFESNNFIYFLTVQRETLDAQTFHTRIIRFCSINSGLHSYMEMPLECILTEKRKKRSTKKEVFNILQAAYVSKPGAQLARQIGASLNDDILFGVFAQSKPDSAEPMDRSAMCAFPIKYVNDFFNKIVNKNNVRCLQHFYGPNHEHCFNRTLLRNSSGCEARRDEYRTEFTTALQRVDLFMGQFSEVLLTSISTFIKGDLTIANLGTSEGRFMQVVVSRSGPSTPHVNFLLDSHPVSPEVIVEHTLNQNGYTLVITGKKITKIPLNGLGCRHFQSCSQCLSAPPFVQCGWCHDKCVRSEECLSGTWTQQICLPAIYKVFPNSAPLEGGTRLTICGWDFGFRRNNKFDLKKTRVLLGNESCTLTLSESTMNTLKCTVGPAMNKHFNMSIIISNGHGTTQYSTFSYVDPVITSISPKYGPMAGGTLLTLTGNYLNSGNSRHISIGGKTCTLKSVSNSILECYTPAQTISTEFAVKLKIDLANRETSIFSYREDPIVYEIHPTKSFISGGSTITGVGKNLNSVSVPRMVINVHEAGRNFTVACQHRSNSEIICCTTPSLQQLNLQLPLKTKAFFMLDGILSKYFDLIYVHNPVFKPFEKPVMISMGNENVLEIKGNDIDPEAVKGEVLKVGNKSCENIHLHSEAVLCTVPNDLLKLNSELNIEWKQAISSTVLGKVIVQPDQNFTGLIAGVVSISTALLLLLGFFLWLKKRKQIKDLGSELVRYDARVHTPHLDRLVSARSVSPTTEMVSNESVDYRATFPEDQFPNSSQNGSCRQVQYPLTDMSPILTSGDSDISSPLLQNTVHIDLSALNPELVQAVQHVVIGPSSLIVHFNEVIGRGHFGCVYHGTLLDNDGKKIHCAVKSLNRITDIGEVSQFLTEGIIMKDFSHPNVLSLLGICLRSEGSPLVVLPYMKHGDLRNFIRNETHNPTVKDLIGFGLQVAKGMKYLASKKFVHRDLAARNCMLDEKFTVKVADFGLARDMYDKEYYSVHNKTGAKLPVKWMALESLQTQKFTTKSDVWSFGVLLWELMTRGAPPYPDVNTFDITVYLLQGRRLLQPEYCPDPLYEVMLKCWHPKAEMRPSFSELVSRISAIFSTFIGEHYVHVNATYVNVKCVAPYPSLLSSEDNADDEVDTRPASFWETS

As to `COc1cc2nccc(Oc3ccc(NC(=O)C(OC)C(=O)Nc4ccc(F)cc4F)cc3)c2cc1OC` (stereo not drawn) [Example 103, N-(2,4-difluorophenyl)-N′-[4-(6,7-dimethoxy-quinolin-4-yloxy)phenyl]-2-methoxymalonamide], it took 2770 nM to reach half-maximal inhibition (IC50).
The compound `COc1cc2nccc(Oc3ccc(NC(=O)C(C)(C)C(=O)Nc4ccc(F)cc4F)cc3)c2cc1OC` [Example 104, N-(2,4-difluorophenyl)-N′-[4-(6,7-dimethoxy-quinolin-4-yloxy)phenyl]-2,2-dimethylmalonamide] registered an IC50 of 344 nM.
The compound `COc1cc2nccc(Oc3ccc(NC(=O)NC(=O)Nc4cc(C)ccn4)cc3)c2cc1OC` [Example 105, N-(4-methyl-2-pyridyl)-({[4-(6,7-dimethoxy-quinolin-4-yloxy)anilino]carbonyl}amino)methanamide] displayed an IC50 of 104 nM.
As for `COc1cc2c(Oc3ccc(NC(=O)NC(=O)Cc4ccccc4)cc3F)ccnc2cc1O` [Example 106, N-{3-Fluoro-4-[(7-hydroxy-6-methoxy-4-quinolyl)-oxy]phenyl}-N′-(2-phenylacetyl)urea], the figure is 42.7 nM; as for `COc1cc2nccc(Oc3ccc(NC(=O)NC(=O)c4ccccc4Cl)c(F)c3)c2cc1OC` [Example 107, 1-(2-chloro-benzoyl)-3-[4-(6,7-dimethoxy-quinolin-4-yloxy)-2-fluorophenyl]urea], 345 nM; as for `COc1cc2nccc(Oc3ccc(NC(=O)NC(=O)c4ccccc4C)c(F)c3)c2cc1OC` [Example 108, 1-[4-(6,7-dimethoxyquinolin-4-yloxy)-2-fluorophenyl]-3-(2-methyl-benzoyl)urea], 2080 nM.
Under `CCCCC(=O)NC(=O)Nc1ccc(Oc2ccnc3cc(OC)c(OC)cc23)c(Cl)c1` [Example 109, 1-[3-chloro-4-(6,7-dimethoxyquinolin-4-yloxy)phenyl]-3-pentanoylurea] stands 1480 nM; under `CCN(CC)CC(=O)NC(=O)Nc1ccc(Oc2ccnc3cc(OC)c(OC)cc23)c(Cl)c1` [Example 110, 1-[3-chloro-4-(6,7-dimethoxyquinolin-4-yloxy)phenyl]-3-(2-diethylaminoacetyl)urea], 2380 nM.
In the case of `COc1cc2nccc(Oc3ccc(NC(=O)NC(=O)CN4CCCC4)cc3Cl)c2cc1OC` [Example 111, 1-[3-chloro-4-(6,7-dimethoxyquinolin-4-yloxy)phenyl]-3-(2-pyrrolidin-1-ylacetyl)urea], half-maximal inhibition (IC50) was put at 1810 nM.
Under `COc1cc2nccc(Oc3ccc(NC(=O)NC(=O)CN(C)C(C)C)cc3Cl)c2cc1OC` [Example 112, 1-[3-chloro-4-(6,7-dimethoxyquinolin-4-yloxy)phenyl]-3-[2-(isopropylmethylamino)acetyl]urea] stands 1730 nM; under `COc1cc2nccc(Oc3ccc(NC(=O)NC(=O)CSC4CCCCC4)cc3)c2cc1OC` [Example 113, 1-(2-cyclohexylsulfanylacetyl)-3-[4-(6,7-dimethoxyquinolin-4-yloxy)phenyl]urea], 653 nM; under `COc1cc2nccc(Oc3ccc(NC(=O)NC(=O)CSC4CCCCC4)c(F)c3)c2cc1OC` [Example 114, 1-(2-cyclohexylsulfanylacetyl)-3-[4-(6,7-dimethoxyquinolin-4-yloxy)-2-fluorophenyl]urea], 485 nM.
As for `COc1cc2nccc(Oc3ccc(NC(=O)NC(=O)CSC4CCCCC4)cc3F)c2cc1OC` [Example 115, 1-(2-cyclohexylsulfanylacetyl)-3-[4-(6,7-dimethoxyquinolin-4-yloxy)-3-fluorophenyl]urea], it took 359 nM to reach half-maximal inhibition (IC50).
As for `COc1cc2nccc(Oc3ccc(NC(=O)NC(=O)CSC4CCCC4)cc3Cl)c2cc1OC` [Example 116, 1-[3-chloro-4-(6,7-dimethoxyquinolin-4-yloxy)phenyl]-3-(2-cyclopentylsulfanylacetyl)urea], the figure is 344 nM; as for `COc1cc2nccc(Oc3ccc(NC(=O)NC(=O)CN4CCCc5cc(C)ccc54)c(F)c3)c2cc1OC` [Example 119, 1-[4-(6,7-dimethoxyquinolin-4-yloxy)-2-fluorophenyl]-3-[2-(6-methyl-3,4-dihydro-2H-quinolin-1-yl)acetyl]urea], 442 nM; as for `COc1cc2nccc(Oc3ccc(NC(=O)NC(=O)CN4CCC(Cc5ccccc5)CC4)cc3F)c2cc1OC` [Example 120, 1-[2-(4-benzyl-piperidin-1-yl)acetyl]-3-[4-(6,7-dimethoxyquinolin-4-yloxy)-3-fluorophenyl]urea], 1570 nM.
As for `COc1cc2nccc(Oc3ccc(NC(=O)NC(=O)CN4CCc5ccccc54)c(F)c3)c2cc1OC` [Example 121, 1-[2-(2,3-dihydro-1H-1-indol-1-yl)acetyl]-3-[4-(6,7-dimethoxyquinolin-4-yloxy)-2-fluorophenyl]urea], the figure is 338 nM.
Under `COc1cc2nccc(Oc3ccc(NC(=O)NC(=O)CN4CCc5ccccc54)cc3F)c2cc1OC` [Example 122, 1-[2-(2,3-dihydro-1H-1-indol-1-yl)acetyl]-3-[4-(6,7-dimethoxyquinolin-4-yloxy)-3-fluorophenyl]urea] stands 303 nM; under `COc1cc2nccc(Oc3ccc(NC(=O)NC(=O)Cn4ccnn4)cc3Cl)c2cc1OC` [Example 123, 1-[3-chloro-4-(6,7-dimethoxyquinolin-4-yloxy)phenyl]-3-(2-[1,2,3]triazol-1-ylacetyl)urea], 2010 nM; under `COc1cc2nccc(Oc3ccc(NC(=O)NC(=O)Cc4ccc(C)cc4)c(F)c3)c2cc1OC` [Example 124, 1-[4-(6,7-dimethoxyquinolin-4-yloxy)-2-fluorophenyl]-3-(2-p-tolylacetyl)urea], 264 nM.
Take `COc1cc2nccc(Oc3ccc(NC(=O)NC(=O)CC4C5CCC4CC5)c(F)c3)c2cc1OC` (stereo not drawn) [Example 126, 1-(2-bicyclo[2.2.1]hepto-7-ylacetyl)-3-[4-(6,7-dimethoxyquinolin-4-yloxy)-2-fluorophenyl]urea]: inhibition was half-maximal at 330 nM (IC50).
As for `COc1cc2nccc(Oc3ccc(NC(=O)NC(=O)CC4C5CCC4CC5)cc3F)c2cc1OC` (stereo not drawn) [Example 127, 1-(2-bicyclo[2.2.1]hepto-7-ylacetyl)-3-[4-(6,7-dimethoxyquinolin-4-yloxy)-3-fluorophenyl]urea], the figure is 319 nM; as for `COc1cc2nccc(Oc3ccc(NC(=O)NC(=O)CC4C5CCC4CC5)cc3Cl)c2cc1OC` (stereo not drawn) [Example 128, 1-(2-bicyclo[2.2.1]hepto-7-ylacetyl)-3-[3-chloro-4-(6,7-dimethoxyquinolin-4-yloxy)phenyl]urea], 285 nM.
As for `COc1cc2nccc(Oc3ccc(NC(=O)NC(=O)CSc4ccccc4)cc3)c2cc1OC` [Example 129, 1-[4-(6,7-dimethoxyquinolin-4-yloxy)phenyl]-3-(2-phenylsulfanylacetyl)urea], the figure is 1010 nM.
As for `COc1cc2nccc(Oc3ccc(NC(=O)NC(=O)CSc4nccn4C)cc3Cl)c2cc1OC` [Example 130, 1-[3-chloro-4-(6,7-dimethoxyquinolin-4-yloxy)phenyl]-3-[2-(1-methyl-1H-imidazol-2-ylsulfanyl)-acetyl]urea], the figure is 2160 nM; as for `COc1cc2nccc(Oc3ccc(NC(=O)NC(=O)CN4CCSCC4)cc3Cl)c2cc1OC` [Example 131, 1-[3-chloro-4-(6,7-dimethoxyquinolin-4-yloxy)phenyl]-3-(2-thiomorpholin-4-ylacetyl)urea], 2370 nM; as for `COc1cc2nccc(Oc3ccc(NC(=O)NC(=O)Cc4cc(F)ccc4F)c(F)c3)c2cc1OC` [Example 132], 268 nM.
